test system: clinical DILI in man; conditions: DILI classification score; ref Guo et al. (2005); cited from earlier work

Row | Structure (SMILES) | Guo et al. (2005)
1 | CCOC(=O)[C@H](CCc1ccccc1)N[C@@H](C)C(=O)N1Cc2ccccc2C[C@H]1C(=O)O [Quinapril] | 3

same assay, conditions: DILI classification score; ref Suzuki et al. (2010); cited from earlier work

Row | Structure (SMILES) | Suzuki et al. (2010)
2 | NCC1(CC(=O)O)CCCCC1 [Gabapentin] | 1
3 | CCOC(=O)[C@H](CCc1ccccc1)N[C@@H](C)C(=O)N1Cc2ccccc2C[C@H]1C(=O)O [Quinapril] | 1

same assay, conditions: FDA drug labeling DILI concern; ref Chen et al., 2011; cited from earlier work

Row | Structure (SMILES) | FDA (Severity)
4 | COc1cc(NC(C)CCCN)c2ncccc2c1 (centres unmarked) [Primaquine] | no DILI concern

same assay, conditions: FDA drug labeling DILI score; ref Chen et al., 2011; cited from earlier work

Row | Structure (SMILES) | FDA (0-8)
5 | COc1cc(NC(C)CCCN)c2ncccc2c1 (centres unmarked) [Primaquine] | 0
6 | Nc1cc(-c2ccncc2)c[nH]c1=O [Amrinone] | 5
7 | NCC1(CC(=O)O)CCCCC1 [Gabapentin] | 3
8 | CCOC(=O)[C@H](CCc1ccccc1)N[C@@H](C)C(=O)N1Cc2ccccc2C[C@H]1C(=O)O [Quinapril] | 3

same assay, conditions: clinical DILI classification in man (POS/NEG); cited from earlier work

Row | Structure (SMILES) | DILI in vivo
9 | COc1cc(NC(C)CCCN)c2ncccc2c1 (centres unmarked) [Primaquine] | NEG
10 | CC(C)COCC(CN(Cc1ccccc1)c1ccccc1)N1CCCC1 (centres unmarked) [Bepridil] | POS
11 | CCC1(c2ccc(N)cc2)CCC(=O)NC1=O (centres unmarked) [Aminoglutethimide] | NEG
12 | Nc1cc(-c2ccncc2)c[nH]c1=O [Amrinone] | POS
13 | Nc1ccc(/N=N/c2ccccc2)c(N)n1 [Phenazopyridine] | POS
14 | NCC1(CC(=O)O)CCCCC1 [Gabapentin] | NEG
15 | CCOC(=O)[C@H](CCc1ccccc1)N[C@@H](C)C(=O)N1Cc2ccccc2C[C@H]1C(=O)O [Quinapril] | POS
16 | C[C@H](CCC(=O)O)[C@H]1CC[C@H]2[C@@H]3[C@H](O)C[C@@H]4C[C@H](O)CC[C@]4(C)[C@H]3CC[C@]12C [Chenodiol] | POS

same assay, conditions: clinical DILI classification used in this study, Supplementary Table 2; ref Chen et al., 2011; Guo et al., 2005; O'Brien et al., 2006; Sakatis et al., 2012; Suzuki et al., 2010; Xu et al., 2008; cited from earlier work

Row | Structure (SMILES) | Classified as
17 | COc1cc(NC(C)CCCN)c2ncccc2c1 (centres unmarked) [Primaquine] | NEG
18 | CC(C)COCC(CN(Cc1ccccc1)c1ccccc1)N1CCCC1 (centres unmarked) [Bepridil] | POS
19 | CCC1(c2ccc(N)cc2)CCC(=O)NC1=O (centres unmarked) [Aminoglutethimide] | NEG
20 | Nc1cc(-c2ccncc2)c[nH]c1=O [Amrinone] | POS
21 | Nc1ccc(/N=N/c2ccccc2)c(N)n1 [Phenazopyridine] | POS
22 | NCC1(CC(=O)O)CCCCC1 [Gabapentin] | NEG
23 | CCOC(=O)[C@H](CCc1ccccc1)N[C@@H](C)C(=O)N1Cc2ccccc2C[C@H]1C(=O)O [Quinapril] | POS
24 | C[C@H](CCC(=O)O)[C@H]1CC[C@H]2[C@@H]3[C@H](O)C[C@@H]4C[C@H](O)CC[C@]4(C)[C@H]3CC[C@]12C [Chenodiol] | POS

same assay, conditions: clinical DILI classification, Supplementary Table 1; ref Chen et al., 2011; Guo et al., 2005; O'Brien et al., 2006; Sakatis et al., 2012; Suzuki et al., 2010; Xu et al., 2008; cited from earlier work

Row | Structure (SMILES) | DILI in vivo
25 | COc1cc(NC(C)CCCN)c2ncccc2c1 (centres unmarked) [Primaquine] | NEG
26 | CC(C)COCC(CN(Cc1ccccc1)c1ccccc1)N1CCCC1 (centres unmarked) [Bepridil] | POS
27 | CCC1(c2ccc(N)cc2)CCC(=O)NC1=O (centres unmarked) [Aminoglutethimide] | NEG
28 | Nc1cc(-c2ccncc2)c[nH]c1=O [Amrinone] | POS
29 | Nc1ccc(/N=N/c2ccccc2)c(N)n1 [Phenazopyridine] | POS
30 | NCC1(CC(=O)O)CCCCC1 [Gabapentin] | NEG
31 | CCOC(=O)[C@H](CCc1ccccc1)N[C@@H](C)C(=O)N1Cc2ccccc2C[C@H]1C(=O)O [Quinapril] | POS
32 | C[C@H](CCC(=O)O)[C@H]1CC[C@H]2[C@@H]3[C@H](O)C[C@@H]4C[C@H](O)CC[C@]4(C)[C@H]3CC[C@]12C [Chenodiol] | POS

same assay, conditions: clinical DILI classification; ref Xu et al. (2008); cited from earlier work

Row | Structure (SMILES) | Xu et al. (2008)
33 | COc1cc(NC(C)CCCN)c2ncccc2c1 (centres unmarked) [Primaquine] | Negative
34 | Nc1cc(-c2ccncc2)c[nH]c1=O [Amrinone] | Positive
35 | NCC1(CC(=O)O)CCCCC1 [Gabapentin] | Negative
36 | CCOC(=O)[C@H](CCc1ccccc1)N[C@@H](C)C(=O)N1Cc2ccccc2C[C@H]1C(=O)O [Quinapril] | Positive

same assay, conditions: in vivo; cited from earlier work

Row | Structure (SMILES) | Classified as | Clinical DILI class (panel heading of Figure 4) | DILI in vivo | FDA (0-8) | Sakatis et al. (2012) | Type of DILI | Xu et al. (2008)
37 | CCN(CC)CC#CCOC(=O)C(O)(c1ccccc1)C1CCCCC1 (centres unmarked) [Oxybutynin] | NEG | DILI negative | NEG | 0 | non-hepatotixic | Non-hepatotoxic | Negative

same assay, conditions: reported pattern of liver damage, Supplementary Table 2; ref literature; cited from earlier work

Row | Structure (SMILES) | Type of DILI
38 | COc1cc(NC(C)CCCN)c2ncccc2c1 (centres unmarked) [Primaquine] | Non-hepatotoxic
39 | CC(C)COCC(CN(Cc1ccccc1)c1ccccc1)N1CCCC1 (centres unmarked) [Bepridil] | Hepatocellular injury
40 | CCC1(c2ccc(N)cc2)CCC(=O)NC1=O (centres unmarked) [Aminoglutethimide] | Non-hepatotoxic
41 | Nc1cc(-c2ccncc2)c[nH]c1=O [Amrinone] | Hepatocellular injury
42 | Nc1ccc(/N=N/c2ccccc2)c(N)n1 [Phenazopyridine] | Hepatocellular injury
43 | NCC1(CC(=O)O)CCCCC1 [Gabapentin] | Non-hepatotoxic
44 | CCOC(=O)[C@H](CCc1ccccc1)N[C@@H](C)C(=O)N1Cc2ccccc2C[C@H]1C(=O)O [Quinapril] | Cholestatic injury
45 | C[C@H](CCC(=O)O)[C@H]1CC[C@H]2[C@@H]3[C@H](O)C[C@@H]4C[C@H](O)CC[C@]4(C)[C@H]3CC[C@]12C [Chenodiol] | Cholestatic injury

same assay, conditions: structural analogue pairs, Figure 5; ref Chen et al., 2011; Xu et al., 2008 and others; cited from earlier work

Row | Structure (SMILES) | Clinical DILI classification (Figure 5)
46 | COc1cc(NC(C)CCCN)c2ncccc2c1 (centres unmarked) [Primaquine] | DILI negative

test system: not given; conditions: human, in vivo; cited from earlier work

Row | Structure (SMILES) | Cmax [nM]
47 | NCC1(CC(=O)O)CCCCC1 [Gabapentin] | 14400

same assay, conditions: therapeutic total cmax; ref PMID; cited from earlier work

Row | Structure (SMILES) | Cmax [nM]
48 | CCN(CC)CC#CCOC(=O)C(O)(c1ccccc1)C1CCCCC1 (centres unmarked) [Oxybutynin] | 20
49 | COc1cc(NC(C)CCCN)c2ncccc2c1 (centres unmarked) [Primaquine] | 1080
50 | CC(C)COCC(CN(Cc1ccccc1)c1ccccc1)N1CCCC1 (centres unmarked) [Bepridil] | 2000
51 | CCC1(c2ccc(N)cc2)CCC(=O)NC1=O (centres unmarked) [Aminoglutethimide] | 25400
52 | Nc1cc(-c2ccncc2)c[nH]c1=O [Amrinone] | 13800
53 | Nc1ccc(/N=N/c2ccccc2)c(N)n1 [Phenazopyridine] | 110
54 | CCOC(=O)[C@H](CCc1ccccc1)N[C@@H](C)C(=O)N1Cc2ccccc2C[C@H]1C(=O)O [Quinapril] | 1200
55 | C[C@H](CCC(=O)O)[C@H]1CC[C@H]2[C@@H]3[C@H](O)C[C@@H]4C[C@H](O)CC[C@]4(C)[C@H]3CC[C@]12C [Chenodiol] | 8000

test system: not given; conditions: ref DrugBank and Prescribers' Digital Reference database; cited from earlier work

Row | Structure (SMILES) | Extent of hepatic metabolism
56 | COc1cc(NC(C)CCCN)c2ncccc2c1 (centres unmarked) [Primaquine] | Extensive
57 | CC(C)COCC(CN(Cc1ccccc1)c1ccccc1)N1CCCC1 (centres unmarked) [Bepridil] | Extensive
58 | CCC1(c2ccc(N)cc2)CCC(=O)NC1=O (centres unmarked) [Aminoglutethimide] | Moderate
59 | Nc1cc(-c2ccncc2)c[nH]c1=O [Amrinone] | Extensive
60 | Nc1ccc(/N=N/c2ccccc2)c(N)n1 [Phenazopyridine] | Moderate
61 | NCC1(CC(=O)O)CCCCC1 [Gabapentin] | Minimal
62 | CCOC(=O)[C@H](CCc1ccccc1)N[C@@H](C)C(=O)N1Cc2ccccc2C[C@H]1C(=O)O [Quinapril] | Moderate
63 | C[C@H](CCC(=O)O)[C@H]1CC[C@H]2[C@@H]3[C@H](O)C[C@@H]4C[C@H](O)CC[C@]4(C)[C@H]3CC[C@]12C [Chenodiol] | Extensive

test system: PHH spheroids (hanging-drop); conditions: cited from earlier work

Row | Structure (SMILES) | Hanging-drop spheroids (Proctor 2017) 100x
64 | CCN(CC)CC#CCOC(=O)C(O)(c1ccccc1)C1CCCCC1 (centres unmarked) [Oxybutynin] | Negative

test system: primary human hepatocytes (PHH) 3D spheroids; conditions: not given

Row | Structure (SMILES) | Chemically defined spheroids (this study) 20x | hepatotoxicity evaluation in CD-spheroids
65 | CCN(CC)CC#CCOC(=O)C(O)(c1ccccc1)C1CCCCC1 (centres unmarked) [Oxybutynin] | Negative | –
66 | COc1cc(NC(C)CCCN)c2ncccc2c1 (centres unmarked) [Primaquine] | Negative | did not cause apparent toxicity at any concentration tested
67 | CC(C)COCC(CN(Cc1ccccc1)c1ccccc1)N1CCCC1 (centres unmarked) [Bepridil] | Positive | –
68 | CCC1(c2ccc(N)cc2)CCC(=O)NC1=O (centres unmarked) [Aminoglutethimide] | Negative | –
69 | Nc1cc(-c2ccncc2)c[nH]c1=O [Amrinone] | Negative | –
70 | Nc1ccc(/N=N/c2ccccc2)c(N)n1 [Phenazopyridine] | Negative | –
71 | NCC1(CC(=O)O)CCCCC1 [Gabapentin] | Negative | –
72 | CCOC(=O)[C@H](CCc1ccccc1)N[C@@H](C)C(=O)N1Cc2ccccc2C[C@H]1C(=O)O [Quinapril] | Negative | –
73 | C[C@H](CCC(=O)O)[C@H]1CC[C@H]2[C@@H]3[C@H](O)C[C@@H]4C[C@H](O)CC[C@]4(C)[C@H]3CC[C@]12C [Chenodiol] | Positive | –

test system: PHH 2D sandwich cultures; conditions: PHH 2D sandwich cultures, 100x Cmax; ref Xu 2008; cited from earlier work

Row | Structure (SMILES) | 2Dsw (Xu 2008) 100x
74 | COc1cc(NC(C)CCCN)c2ncccc2c1 (centres unmarked) [Primaquine] | Negative
75 | CC(C)COCC(CN(Cc1ccccc1)c1ccccc1)N1CCCC1 (centres unmarked) [Bepridil] | Positive
76 | CCC1(c2ccc(N)cc2)CCC(=O)NC1=O (centres unmarked) [Aminoglutethimide] | Negative
77 | Nc1cc(-c2ccncc2)c[nH]c1=O [Amrinone] | Negative
78 | Nc1ccc(/N=N/c2ccccc2)c(N)n1 [Phenazopyridine] | Negative
79 | CCOC(=O)[C@H](CCc1ccccc1)N[C@@H](C)C(=O)N1Cc2ccccc2C[C@H]1C(=O)O [Quinapril] | Negative
80 | C[C@H](CCC(=O)O)[C@H]1CC[C@H]2[C@@H]3[C@H](O)C[C@@H]4C[C@H](O)CC[C@]4(C)[C@H]3CC[C@]12C [Chenodiol] | Positive

same assay, conditions: cited from earlier work

Row | Structure (SMILES) | 2Dsw (Xu 2008) 100x
81 | CCN(CC)CC#CCOC(=O)C(O)(c1ccccc1)C1CCCCC1 (centres unmarked) [Oxybutynin] | Negative
82 | NCC1(CC(=O)O)CCCCC1 [Gabapentin] | Negative

From publication PMC5974779, “Prediction of Drug-Induced Hepatotoxicity Using Long-Term Stable Primary Hepatic 3D Spheroid Cultures in Chemically Defined Conditions” (Toxicological Sciences, 2018)
